Legend:
[1] = system: differentiated 3T3-L1 adipocytes; assay: Glucose transport assay (2-deoxy-D-glucose uptake); format: cell-based; conditions: 48 hr
Procedure: 3T3-L1 fibroblasts (American Type Culture Collection) were plated and grown for 2 days postconfluence in Dulbecco's modified Eagle's medium (DMEM; 4,500 mg/L glucose, HyClone) supplemented 10% FBS, 10 μg/mL penicillin and streptomycin in an atmosphere of 5% CO2 at 37° C. Adipocyte differentiation was then induced using standard protocol. After 48 hr, the differentiation medium was replaced with maintenance medium containing DMEM supplemented with 10% FBS. The maintenance medium was changed every 3 days until the cells were utilized for experimentation. Glucose transport activity was measured in the presence or absence of insulin and the protocol was modified from Kletzien, R F et al. (1992) Molecular Pharmacology 41:393-398. Briefly, differentiated 3T3-L1 adipocytes were incubated with vehicle (DMSO), insulin (100 nM) alone, test compound (50 μM) alone and a combination of insulin (100 nM)+test compound (50 μM) for 48 hr. Medium was changed twice a day in the presence of compound. Glucose uptake was measured using 2-Deoxy-D-[1−^3H] glucose as label after 90 min incubation with each compound. […] In the series of compounds, one of the best result was obtained with 7-[2-(5-methyl-2-phenyl-4-oxazolyl)-ethoxy]-chroman-3-carboxylic acid (Example 1).

db/db mice [2] = assay: Efficacy test for blood glucose lowering (db/db mice); format: in vivo; conditions: 30 mg/kg/d oral
Procedure: (§1) Mice used in this study were standard model of type II diabetes developed by Jackson Laboratories (Bar Harbor, Me.). Male, 8-week-old db/db mice were housed six per cage in hanging wire bottom cages with standard laboratory conditions. The mice had free access to normal chow (Purina Rodent Chow) and water. At the age of 11-12 weeks, mice were bled in the tail for glucose matching among the groups (n=6 per group). The grouped mice were then dosed orally with vehicle (CMC) or with compounds of formula I (30 mg/kg/d) for 7 days. Compound of formula I at 30 mg/kg/d was dosed as suspension in 0.5% CMC+0.2% Tween 80 in H2O. Fresh suspension was prepared for 8 days dosing and kept in a refrigerator. The suspension was administered by oral gavage daily in the morning. The control group received vehicle (dose 10 mL/kg). Blood glucose concentrations were monitored at basal and 3 hr post dose on day 4 and 8. For blood sampling, mice were placed in a restrainer and drop of blood was obtained by nick in the tip of the tail. Blood glucose concentrations were determined either by putting a drop of blood on a glucose strip for analysis by a glucometer or using a 10 μL plasma sample in a YSI (Yellow Spring Instruments, OH) analyzer. Results are expressed as absolute blood glucose concentrations (mg/dL) and % reduction that is achieved reduction relative to vehicle treated control group. Animals having more than 300 mg/dL of blood glucose were used for testing. Statistical significance (p<0.05) is given versus the appropriate sample in vehicle treated animals. On day 7, the mice were fasted overnight for 18 hrs and were bled in the tail for the glucose level checking then dosed with the testing compounds (30 mg/kg/d). After 2 hr, blood samples were taken and the rats were dosed with 10% glucose in water (10 ml/kg) orally and blood glucose was monitored at 15, 30, 60, 90 and 120 min after dosing. The blood samples were centrifuged and plasma samples were collected and analyzed for insulin, Tg and FFA.

db/db mice [3] = assay: Oral Glucose Tolerance Test (OGTT) in db/db mice; format: in vivo; conditions: 30 mg/kg/d for 9 days
Procedure: as §1, with “FFA. An Oral Glucose Tolerance Test (OGTT) was performed both in db/db mice and in high fat (HF) rats after dosing 30 mg/kg/d of compounds of Examples 1 and 2 for 9 days. For OGTT and ITT studies, Sprague-Dawley rats were prepared by feeding high fat (HF) diet (60% calorie from fat) for 6 weeks. Before the study, they were matched into groups on the basis of blood glucose levels.” for “FFA.”

high fat (HF) rats = assay: Oral Glucose Tolerance Test (OGTT) in high fat (HF) rats; format: in vivo, Sprague-Dawley rats; conditions: 30 mg/kg/d for 9 days
Procedure: (§2) An Oral Glucose Tolerance Test (OGTT) was performed both in db/db mice and in high fat (HF) rats after dosing 30 mg/kg/d of compounds of Examples 1 and 2 for 9 days. For OGTT and ITT studies, Sprague-Dawley rats were prepared by feeding high fat (HF) diet (60% calorie from fat) for 6 weeks. Before the study, they were matched into groups on the basis of blood glucose levels.

HF rat = assay: Insulin tolerance test (ITT) in HF rat; format: in vivo, Sprague-Dawley rats; conditions: 30 mg/kg oral, insulin 0.25 U/kg i.p. 2 hr later
Procedure: as §2, with “levels. Insulin tolerance test (ITT) was performed in HF rat which were prepared in the same manner with OGTT test animal. On the day of the study, rats were orally dosed with the testing compounds (30 mg/kg) and 2 hr later, rats were dosed with insulin (0.25 U/kg, i.p.) in 0.1% BSA solution in saline. Blood glucose of the rat was measured at 15, 30, 60, 120 min after dose.” for “levels.”

STZ rat = assay: Blood glucose lowering effect in STZ rat; format: in vivo; conditions: STZ rat (data not shown)
[4] = Solubility in dosing vehicle; format: physicochemical
Description: It appeared that compounds of Examples 1 and 2 were not soluble in 0.5% CMC vehicle.

[5] = system: differentiated 3T3-L1 adipocytes; assay: Glucose transport assay (2-deoxy-D-glucose uptake); format: cell-based

solubility in 0.5% CMC vehicle [4]: not soluble
SMILES: Cc1oc(-c2ccccc2)nc1CCOc1ccc2c(c1)OCC(C(=O)O)C2 (centres unmarked) [Example 1, 7-[2-(5-Methyl-2-phenyl-4-oxazolyl)ethoxy]chromane-3-carboxylic acid]
Fold Stimulation (50 μM) of 2-deoxy-D-glucose uptake, Insulin + Compound ([1]; 50 μM compound + 100 nM insulin): 8.4 fold
fold induction at 50 µM ([1]; Mus musculus, 50 μM compound alone, read-out: Fold Stimulation (50 μM) of 2-deoxy-D-glucose uptake, Compound only): 1.3
Fatty acid % reduction (db/db mice [2]; plasma): −33.7%
Insulin % reduction (db/db mice [2]; plasma): −62.4%
Glucose Max % efficacy (db/db mice [2]; suspension in 0.5% CMC + 0.2% Tween 80): 80.0%
Glucose Observed value (db/db mice [2]; suspension in 0.5% CMC + 0.2% Tween 80, control 261.2): 132.2 mg/dL
AUC of Glucose in db/db, % reduction (db/db mice [3]): 41.5%
AUC of Glucose in db/db, Observed value (db/db mice [3]; control 40858): 28870 mg/dl × 120 min
AUC of Glucose in high fat rat, % reduction (high fat (HF) rats): 13.1%
AUC of Glucose in high fat rat, Observed value (high fat (HF) rats; control 14053): 12206 mg/dl × 120 min
AUC of Glucose in high fat rat, % reduction (HF rat): 27.7 (p < 0.02) %
AUC of Glucose in high fat rat, Observed value (HF rat; control 13359): 11014 mg/dl × 120 min
blood glucose lowering effect (STZ rat): did not reduce blood glucose
glucose uptake, dose dependence on compound ([5]; 0-100 μM compound in the presence of 100 nM insulin (FIG. 2)): dose-dependent manner
glucose uptake of insulin in presence of compound ([5]; 50 μM compound, 0.1-1,000 nM insulin (FIG. 3)): further enhanced glucose uptake of insulin in dose dependent manner
stimulation of basal glucose uptake by compound per se ([5]; 3T3-L1 adipocytes, no insulin, 0.1 to 100 μM): did not stimulate the basal glucose uptake
